Data on nine compounds can be found in patent US7868173B2, “Prodrugs of benzoquinolizine-2-carboxylic acid” (Wockhardt Limited, priority 2006, dated 2011).

Bounds are passed on as bounds.

Data set [1] can be described thus: Solubility analysis: aqueous solubility in buffer at physiological pH. It is filed as physicochemical. As to conditions: 25-30° C. Here is the method:
Solubility analysis: Method for determining aqueous solubility at different physiological pH at 25-30° C. temperature: To accurately weighed amount of test substance, particular buffer solution was added in portion (about 50 microliter portions) at 25-30° C. temperature till solid is completely dissolved and clear solution is obtained.

Data set [2] in a line: Oral bioavailability in animals. The class given is in vivo.
For data set [3] the following is noted: over the pH range 8.0-9.5 at 28° C.; cited from earlier work.
For data set [4] the following is noted: rats, intravenous route; cited from earlier work.
Data set [5] in a line: Pharmacokinetic (PK) study in Sprague Dawley rats, oral dose. The class given is in vivo. As to conditions: rat. On the procedure:
Method for pharmacokinetic (PK) study in Sprague Dawley rats: Pharmacokinetic study was conducted on male Sprague Dawley rats weighing 200-220 g fasted overnight. (2′S,5S)-9-fluoro-6,7-dihydro-8-(4-L-alaninyloxy-piperidin-1-yl)-5-methyl-1-oxo-1H,5H-benzo[i,j]-quinolizine-2-carboxylic acid methanesulfonic acid salt (A), (2′S,5S)-9-fluoro-6,7-dihydro-8-(4-L-alaninyloxy-piperidin-1-yl)-5-methyl-1-oxo-1H,5H-benzo[i,j]quinolizine-2-carboxylic acid hydrochloride salt (B) and (2′S,5S)-9-fluoro-6,7-dihydro-8-(4-L-valinyloxy-piperidin-1-yl)-5-methyl-1-oxo-1H,5H-benzo[i,j]quinolizine-2-carboxylic acid methanesulfonic acid salt (C) were dissolved in Milli Q water. Compounds A, B and C were administered at the dose of 50 mg/kg orally calculated on the basis of active ingredient. (5S)-9-fluoro -6,7-dihydro-8-(4-hydroxy-piperidin-1-yl)-5-methyl-1-oxo-1H,5H-benzo[i,j]quinolizine-2-carboxylic acid L-arginine salt (D) was dissolved in 1% Tween prior to use. Compounds A and D were administered at the dose of 200 mg/kg orally calculated on the basis of active ingredient. Dose volume was 0.5 ml/200g. Blood samples were collected at predetermined time intervals i.e. 0, 0.5, 1, 2, 4, 6 & 8 h in eppendorff vials containing 10 μl saturated solution of sodium fluoride. Plasma was collected after centrifugation of blood sample at 10000 rpm for 10 min. Plasma samples were analyzed on HPLC for determining drug levels. PK parameters AUC, Cmax were calculated by non-compartmental analysis by using Winnonlin software.

The conditions of data set [6]: repeated intravenous administration, injectable form; cited from earlier work.
Where [7] appears, read: as compared to B, 50 mg/kg per os dose.
Where [8] appears, read: as compared to D, 200 mg/kg per os dose.
The mark [9] stands for this setting: as compared to D, 50 mg/kg per os dose.

Regarding `CC(C)[C@H](N)C(=O)OC1CCN(c2c(F)cc3c(=O)c(C(=O)O)cn4c3c2CC[C@@H]4C)CC1.CS(=O)(=O)O`, the “Solubility (mg/ml) at pH 7” value in data set [1] was >200 mg/ml.

As to “S-(−)-9-fluoro-6,7-dihydro-8-(4-hydroxypiperidin-1-yl)-5-methyl-1-oxo-1H,5H-benzo[i,j]quinolizine-2-carboxylic acid”, the “Solubility (mg/ml) at pH 7” value in data set [1] is on record as <1 mg/ml. Moreover, the oral bioavailability entry in data set [2] is “poor”. Also, the aqueous solubility – broadly, the dissolved amount per volume that the medium holds – in data set [3] was 800 to 2000 µg/mL.

For the compound `C[C@H]1CCc2c(N3CCC(O)CC3)c(F)cc3c(=O)c(C(=O)O)cn1c23.N=C(N)NCCC[C@H](N)C(=O)O` [(5S)-9-fluoro-6,7-dihydro-8-(4-hydroxy-piperidin-1-yl)-5-methyl-1-oxo-1H,5H-benzo[i,j]quinolizine-2-carboxylic acid L-arginine salt], the “propensity to cause phlebitis” value in data set [4] is reported as “lower propensity to cause phlebitis”.

Consider `CS(=O)(=O)O.C[C@H](N)C(=O)OC1CCN(c2c(F)cc3c(=O)c(C(=O)O)cn4c3c2CC[C@@H]4C)CC1` [A, (2′S,5S)-9-fluoro-6,7-dihydro-8-(4-L-alaninyloxy-piperidin-1-yl)-5-methyl-1-oxo-1H,5H-benzo[i,j]-quinolizine-2-carboxylic acid methanesulfonic acid salt], for which the “Solubility (mg/ml) at pH 7” value in data set [1] was >200 mg/ml. Further, the entries for the “% Increase in AUC” value in data set [5] (setting [7]) and in data set [5] (setting [8]) were 175% and 120%, respectively. In addition, the “% Increase in Cmax” value in data set [5] (setting [7]) is recorded as 300%; in data set [5] (setting [8]), 200%.

On to `CC(C)[C@H](N)C(=O)OC1CCN(c2c(F)cc3c(=O)c(C(=O)O)cn4c3c2CC[C@@H]4C)CC1.CS(=O)(=O)O` [C, (2′S,5S)-9-fluoro-6,7-dihydro-8-(4-L-valinyloxy-piperidin-1-yl)-5-methyl-1-oxo-1H,5H-benzo[i,j]quinolizine-2-carboxylic acid methanesulfonic acid salt], for which, in data set [5] (setting [9]), the “% Increase in AUC” value is reported as 92% and the “% Increase in Cmax” value is 97%.

Regarding `C[C@H]1CCc2c(N3CCC(O)CC3)c(F)cc3c(=O)c(C(=O)O)cn1c23.N=C(N)NCCC[C@H](N)C(=O)O.O.O.O.O` [S-(−)-9-fluoro-6,7-dihydro-8-(4-hydroxypiperidin-1-yl)-5-methyl-1-oxo-1H,5H-benzo[i,j]quinolizine-2-carboxylic acid L-arginine salt tetrahydrate], the oral bioavailability entry in data set [2] is recorded as “poor”. In addition, in data set [6], the venous inflammation entry is “not causing venous inflammation”.

As to `C[C@H](N)C(=O)OC1CCN(c2c(F)cc3c(=O)c(C(=O)O)cn4c3c2CC[C@@H]4C)CC1.Cl`, in data set [1], the “Solubility (mg/ml) at pH 7” value is 4 mg/ml.

For `C[C@H]1CCc2c(N3CCC(O)CC3)c(F)cc3c(=O)c(C(=O)[O-])cn1c23.[Na+]` [S-(−)-9-fluoro-6,7-dihydro-8-(4-hydroxypiperidin-1-yl)-5-methyl-1-oxo-1H,5H-benzo[i,j]quinolizine-2-carboxylic acid sodium salt], in data set [4], the “propensity to cause phlebitis” value is given as “high propensity to cause phlebitis”.

As for `CC(C)[C@H](N)C(=O)OC1CCN(c2c(F)cc3c(=O)c(C(=O)O)cn4c3c2CC[C@@H]4C)CC1` [(2′S,5S)-9-fluoro-6,7-dihydro-8-(4-L-valinyloxy-piperidin-1-yl)-5-methyl-1-oxo-1H,5H-benzo[i,j]quinolizine-2-carboxylic acid, reference compound], the “Solubility (mg/ml) at pH 7” value in data set [1] was <1 mg/ml.
